Test: mn = molality of the nth substance listed, in mol/kg
Settings: 101.3 kPa, Liquid

N[C@@H](CCC(=O)[O-])C(=O)O.[Na+] [sodium (S)-2-amino-4-carboxybutanoate] + O
speed of sound [m/s]
Settings | 278.15 K | 288.15 K | 298.15 K
Frequency=2 MHz, Linear variable-path acoustic interferometer, m1 = 0.0467 | 1433.6 | – | –
Frequency=2 MHz, Linear variable-path acoustic interferometer, m1 = 0.0724 | 1437.7 | – | –
Frequency=2 MHz, Linear variable-path acoustic interferometer, m1 = 0.091 | 1441 | – | –
Frequency=2 MHz, Linear variable-path acoustic interferometer, m1 = 0.1095 | 1442.8 | – | –
Frequency=2 MHz, Linear variable-path acoustic interferometer, m1 = 0.1355 | 1446.8 | – | –
Frequency=2 MHz, Linear variable-path acoustic interferometer, m1 = 0.163 | 1451.4 | – | –
Frequency=2 MHz, Linear variable-path acoustic interferometer, m1 = 0.1906 | 1455.3 | – | –
Frequency=2 MHz, Linear variable-path acoustic interferometer, m1 = 0.2075 | 1458.8 | – | –
Frequency=2 MHz, Linear variable-path acoustic interferometer, m1 = 0.2251 | 1461.7 | – | –
Frequency=2 MHz, Linear variable-path acoustic interferometer, m1 = 0.2436 | 1464 | – | –
Frequency=2 MHz, Linear variable-path acoustic interferometer, m1 = 0.2705 | 1468.1 | – | –
Frequency=2 MHz, Linear variable-path acoustic interferometer, m1 = 0.2895 | 1471.7 | – | –
Frequency=2 MHz, Linear variable-path acoustic interferometer, m1 = 0.302 | 1473.6 | – | –
Frequency=3 MHz, Sing-around technique in a fixed-path interferometer, m1 = 0.0469 | – | 1472.9 | 1502.5
Frequency=3 MHz, Sing-around technique in a fixed-path interferometer, m1 = 0.072 | – | 1476.6 | 1505.8
Frequency=3 MHz, Sing-around technique in a fixed-path interferometer, m1 = 0.0904 | – | 1478.9 | 1508.2
Frequency=3 MHz, Sing-around technique in a fixed-path interferometer, m1 = 0.1082 | – | 1481.3 | 1510.5
Frequency=3 MHz, Sing-around technique in a fixed-path interferometer, m1 = 0.1368 | – | 1485.6 | 1514.4
Frequency=3 MHz, Sing-around technique in a fixed-path interferometer, m1 = 0.1628 | – | 1489.3 | 1517.9
Frequency=3 MHz, Sing-around technique in a fixed-path interferometer, m1 = 0.19 | – | 1492.9 | 1521.3
Frequency=3 MHz, Sing-around technique in a fixed-path interferometer, m1 = 0.2089 | – | 1495.3 | 1523.6
Frequency=3 MHz, Sing-around technique in a fixed-path interferometer, m1 = 0.2289 | – | 1497.5 | 1525.8
Frequency=3 MHz, Sing-around technique in a fixed-path interferometer, m1 = 0.2441 | – | 1499.7 | 1527.8
Frequency=3 MHz, Sing-around technique in a fixed-path interferometer, m1 = 0.264 | – | 1503.2 | 1531.1
Frequency=3 MHz, Sing-around technique in a fixed-path interferometer, m1 = 0.2916 | – | 1506.7 | 1533.9
Frequency=3 MHz, Sing-around technique in a fixed-path interferometer, m1 = 0.316 | – | 1509 | 1537

mass density [kg/m3]
Settings | 278.15 K | 288.15 K | 298.15 K
Pycnometric method, m1 = 0.0467 | 1004.22 | – | –
Pycnometric method, m1 = 0.0724 | 1006.57 | – | –
Pycnometric method, m1 = 0.091 | 1008.26 | – | –
Pycnometric method, m1 = 0.1095 | 1009.79 | – | –
Pycnometric method, m1 = 0.1355 | 1012.41 | – | –
Pycnometric method, m1 = 0.163 | 1014.89 | – | –
Pycnometric method, m1 = 0.1906 | 1017.32 | – | –
Pycnometric method, m1 = 0.2075 | 1018.82 | – | –
Pycnometric method, m1 = 0.2251 | 1020.29 | – | –
Pycnometric method, m1 = 0.2436 | 1022.15 | – | –
Pycnometric method, m1 = 0.2705 | 1024.19 | – | –
Pycnometric method, m1 = 0.2895 | 1026.12 | – | –
Pycnometric method, m1 = 0.302 | 1027.42 | – | –
Vibrating tube method, m1 = 0.0469 | – | 1003.34 | 1001.22
Vibrating tube method, m1 = 0.072 | – | 1005.66 | 1003.48
Vibrating tube method, m1 = 0.0904 | – | 1007.29 | 1005.08
Vibrating tube method, m1 = 0.1082 | – | 1008.87 | 1006.62
Vibrating tube method, m1 = 0.1368 | – | 1011.34 | 1009.04
Vibrating tube method, m1 = 0.1628 | – | 1013.63 | 1011.28
Vibrating tube method, m1 = 0.19 | – | 1016.04 | 1013.63
Vibrating tube method, m1 = 0.2089 | – | 1017.65 | 1015.21
Vibrating tube method, m1 = 0.2289 | – | 1019.31 | 1016.84
Vibrating tube method, m1 = 0.2441 | – | 1020.63 | 1018.13
Vibrating tube method, m1 = 0.264 | – | 1022.32 | 1019.79
Vibrating tube method, m1 = 0.2916 | – | 1024.67 | 1022.11
Vibrating tube method, m1 = 0.316 | – | 1026.69 | 1024.08

Reference: the NIST ThermoML archive (doi:10.1016/j.jct.2015.09.020)
